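Assay format: 96-well plates, 48-hour exposure. Abbreviation: GI50, concentration required for 50% inhibition of growth. TGI marks complete inhibition of growth.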
Assays:
Experiment in all cases: NCI anticancer screen, dose series, 48 h
[1] = system: 786-0 renal
[2] = system: EKVX NSCLC
[3] = system: HCC-2998 colon
[4] = system: KM12 colon
[5] = system: SK-MEL-5 melanoma
[6] = system: SK-OV-3 ovarian
[7] = system: UO-31 renal
[8] = system: DU-145 prostate
[9] = system: NCI/ADR-RES ovarian
[10] = system: MCF7 breast

Structure (SMILES) | TGI [1] [µM] | TGI [2] [µM] | TGI [3] [µM] | TGI [4] [µM] | TGI [5] [µM] | TGI [6] [µM] | TGI [7] [µM] | GI50 [1] [µM] | GI50 [8] [µM] | TGI [8] [µM] | GI50 [2] [µM] | GI50 [3] [µM] | GI50 [4] [µM] | GI50 [9] [µM] | TGI [9] [µM] | GI50 [6] [µM] | GI50 [7] [µM] | GI50 [5] [µM] | GI50 [10] [µM] | TGI [10] [µM]
O=C1CC(c2c(-c3ccccc3)[nH]c3ccccc23)C(=O)N1 (stereo unspecified) | > 100 | > 100 | > 100 | > 100 | > 100 | > 100 | > 100 | – | – | – | – | – | – | – | – | – | – | – | – | –
COc1ccc(OC(C)=O)c2c1CCC=CC2=O | 32.5 | – | 32.9 | 12.6 | 28.9 | 31.2 | 30.9 | – | – | – | – | – | – | – | – | – | – | – | – | –
COc1ccccc1NC(=O)C1=C(C)NC(C)=C(C(=O)Nc2ccccc2OC)C1C1=CC=COC1 | > 100 | > 100 | 50.2 | 49.6 | 41.9 | 71.2 | > 100 | – | – | – | – | – | – | – | – | – | – | – | – | –
C=C=C(C(=O)OC)S(=O)c1ccccc1[N+](=O)[O-] (stereo unspecified) | > 100 | > 100 | > 100 | > 100 | > 100 | > 100 | > 100 | – | – | – | – | – | – | – | – | – | – | – | – | –
COC1OC(CO)C(O)C(OC(C)=O)C1NC(=O)N(CCCl)N=O (stereo unspecified) | > 100 | > 100 | > 100 | > 100 | > 100 | > 100 | – | – | – | – | – | – | – | – | – | – | – | – | – | –
OC(c1cc(-c2cccc(Cl)c2)nc2ccccc12)C1CCCCN1 (stereo unspecified) | 3.47 | 2.94 | 4.15 | 3.2 | – | 12.2 | 2.74 | 1.84 | 1.76 | 3.15 | 1.45 | 2.09 | 1.79 | 1.99 | 4.02 | 3.54 | 1.36 | – | – | –
COC(=O)C(=O)C(C(=O)C(=O)Nc1cccc(C(C)=O)c1)c1nc2ccc([N+](=O)[O-])cc2[nH]c1=O (stereo unspecified) | > 100 | > 100 | > 100 | > 100 | > 100 | > 100 | > 100 | – | – | – | – | – | – | – | – | – | – | – | – | –
NC1=CC(=O)c2cccnc2C1=O | 3.75 | 3.31 | 19.8 | 13.1 | 2.95 | 17.8 | 2.5 | 1.78 | 1.58 | 2.97 | 1.58 | 5.82 | 3.28 | 2.29 | 11.2 | 4.26 | 1.17 | 1.58 | – | –
O=C(/C=C/c1ccco1)c1cc(F)c(Cl)cc1Cl | 55.4 | 37.3 | – | 56.4 | 32.5 | 80.1 | 34 | 22.3 | 19.9 | 44.1 | 17.1 | – | 19.7 | – | – | 24.5 | 17.1 | 17 | 14.1 | 63
COC(=O)C(Cc1nc2ccccc2[nH]c1=O)/C(=N\NC(C)(C)C)C(=O)Nc1c(C)cc(Br)cc1C (stereo unspecified) | 34.4 | > 100 | > 100 | > 100 | 55.3 | > 100 | > 100 | – | – | – | – | – | – | – | – | – | – | – | – | –
Cc1cc([N+](=O)[O-])ccc1NC(=O)C(=O)C(C(=O)c1ccccc1-c1ccccc1)C1OC(=O)c2ccccc21 (stereo unspecified) | 32.5 | – | 29.1 | 32.5 | 28.7 | 65.6 | 31.3 | – | – | – | – | – | – | – | – | – | – | – | – | –
Cn1cc(C2=C(c3ccccc3[N+](=O)[O-])C(=O)NC2=O)c2ccccc21 | > 25 | – | > 23.7 | 13.3 | 8.06 | > 25 | > 20.5 | 3.2 | 6.13 | > 25 | – | 7.79 | 3.25 | 6.32 | > 21.6 | 4.79 | 5.28 | 2.86 | 4.05 | > 25
CO/C=C/C(=O)c1cc2cnc3c(=N)cc(NC(=O)C(C)C)c([nH]1)c23 | 0.695 | – | 1.63 | 1.86 | 0.183 | 0.873 | 0.323 | 0.0981 | 0.0864 | 6.35 | – | 0.291 | 0.196 | – | – | 0.146 | 0.0169 | 0.075 | 0.0182 | 1.25
CN(C)c1ccc(/C=C/c2ccnc3c(O)cccc23)cc1 | > 26.2 | – | > 100 | > 100 | 3.05 | > 100 | > 22.7 | 0.886 | 0.626 | > 100 | – | 2.09 | 0.399 | 0.312 | – | 0.461 | 0.247 | 0.37 | 0.371 | > 100
CC(C)N1CC2CN(Cc3ccccc3)CC(C1)C2=O | > 100 | – | > 100 | > 100 | – | > 100 | > 100 | – | – | > 100 | – | – | – | – | > 100 | – | – | – | – | > 100
NCCCNc1nc2ccccc2c2c(=O)c3cc(F)cc(F)c3sc12 | 3.12 | 3.12 | 3.36 | 3.26 | 3.09 | – | 2.88 | 1.49 | 1.71 | 3.19 | 1.6 | 1.69 | 1.74 | 1.81 | 3.69 | – | 1.48 | 1.68 | – | –
C=CC(=O)NCCSCCCOC1(C(=O)O)CC(O)C(NC(C)=O)C(C(O)C(O)CO)O1 (stereo unspecified) | > 100 | – | > 100 | > 100 | – | > 100 | > 100 | – | – | – | – | – | – | – | – | – | – | – | – | –
CCN(CC)CC(C)(C)C(=O)/C=C/c1cccc(/C=C/C(=O)C(C)(C)CN(CC)CC)c1 | 1.87 | 2.53 | 2.51 | 1.77 | 2.97 | 2.79 | 3.17 | – | – | – | – | – | – | – | – | – | – | – | – | –
CC1=Nc2ccccc2NC(c2ccoc2)C1 (stereo unspecified) | > 100 | > 100 | > 100 | > 100 | > 100 | > 100 | > 100 | – | – | – | – | – | – | – | – | – | – | – | – | –
Nc1c(-c2cn(Cc3ccccc3)c3ccccc23)[n+]([O-])c2ccccc2[n+]1[O-] | > 100 | > 100 | > 100 | > 100 | 51.3 | 95.3 | 38.8 | – | – | – | – | – | – | – | – | – | – | – | – | –
COc1cccc2ccc(C(=O)c3ccccc3)nc12 | > 100 | > 100 | > 100 | > 100 | > 100 | – | – | – | – | – | – | – | – | – | – | – | – | – | – | –
CC1=C(O)c2cn(C)cc2C(=O)C1=O | > 100 | > 100 | > 100 | > 100 | > 100 | > 100 | > 100 | – | – | – | – | – | – | – | – | – | – | – | – | –

Source: PubChem BioAssay (NCI)
